Laboratory results published in patent US20240246941A1, “SUBSTITUTED 4-(3-AMINOPROP-1-YL)AMINOQUINOLINE ANALOGS AS MODULATORS OF MELANOMA-ASSOCIATED ANTIGEN 11 UBIQUITIN LIGASE” (ST. JUDE CHILDREN'S RESEARCH HOSPITAL, INC., priority 2020, published 2024).

These molecules were tested against MAGE-A11:PCF11 (Homo sapiens (Human), UniProt P43364) (assay: TR-FRET single point screening at 15 μM). Conditions: single point TR-FRET screening at 15 μM against MAGE-A11:PCF11.
Sequence of MAGE-A11:PCF11 (P43364 218-429): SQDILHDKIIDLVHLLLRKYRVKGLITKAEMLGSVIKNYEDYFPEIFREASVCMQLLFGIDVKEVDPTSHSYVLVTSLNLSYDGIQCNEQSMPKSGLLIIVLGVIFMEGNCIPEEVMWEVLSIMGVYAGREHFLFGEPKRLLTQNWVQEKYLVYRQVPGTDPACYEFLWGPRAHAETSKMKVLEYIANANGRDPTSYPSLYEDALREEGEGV
Type: binding
Design: unit not given here
Outline: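 Single-point screen at 15 μM (0.25% DMSO) measuring disruption of GST-MAGEA11 (5 nM) binding to FAM-PCF11_4 peptide (200 nM) detected by Tb-anti-GST (5 nM). Buffer 50 mM Tris pH 7.5, 20 mM MgCl2, 0.1 mg/ml BSA, 1 mM DTT; 90 min at ~25 °C; 520/490 nm ratio converted to % inhibition versus controls.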
Molecule `COc1ccc2nc3cc(Cl)ccc3c(NCCCNCc3sccc3C)c2c1` [SJ000361094] has a TR-FRET signal of −321.3. For `Clc1ccc2c(NCCCCN(Cc3ccccc3)Cc3ccc(Br)s3)ccnc2c1` [SJ000312688], the TR-FRET signal was 22.04. `COc1ccc2nc3cc(Cl)ccc3c(NCCCNCc3cccc(F)c3)c2c1` [SJ000521004] was tested, and the TR-FRET signal was −366.2. `CC(C)(C)CCN(CCCCNc1ccnc2cc(Cl)ccc12)Cc1ccccc1` [SJ000357537] gave a TR-FRET signal of 34.54. `COc1ccccc1N1CCN(c2c(S(=O)(=O)c3ccc(C)cc3)cnc3ccccc23)CC1` [SJ000117065] was tested, and the TR-FRET signal was −8.687. With `CCOc1ccc2ncc(S(=O)(=O)c3ccc(C)cc3)c(N3CCN(c4ccccc4F)CC3)c2c1` [SJ000117077] the TR-FRET signal was 5.159. Molecule `CCCN(CCCNc1c2ccc(Cl)cc2nc2ccc(OC)cc12)Cc1cccs1` [SJ000520920] has a TR-FRET signal of −164.1. With `Fc1cccc(C(F)(F)F)c1CN(CCCCNc1ccnc2cc(Cl)ccc12)Cc1ccccc1` [SJ000520465] the TR-FRET signal was 28.75. For `COc1ccc2nc3cc(Cl)ccc3c(NCCCNCc3cc(F)ccc3F)c2c1` [SJ000361091], the TR-FRET signal was −327.2. In the case of `CCc1ccc2ncc(S(=O)(=O)c3ccc(Cl)cc3)c(N3CCN(CC)CC3)c2c1` [SJ000083968], the TR-FRET signal is reported as −19.13. Molecule `COc1ccc(CN(CCCCNc2ccnc3cc(Cl)ccc23)Cc2ccccc2)cc1F` [SJ000520438] has a TR-FRET signal of 13.15. `COc1ccc2ncc(S(=O)(=O)c3ccccc3)c(N3CCN(c4cccc(C)c4C)CC3)c2c1` [SJ000117082] gave a TR-FRET signal of −241.8. `CCN(CC)CCCC(C)Nc1c2ccc(Cl)cc2nc2ccc(OC)cc12` (centres unmarked) [SJ000285202] was tested, and the TR-FRET signal was −265.7. For `COc1ccc2nc3cc(Cl)ccc3c(NCCCNCc3ccc4[nH]ccc4c3)c2c1` [SJ000520914], the TR-FRET signal was −184.2. Work on `CCCN(CCCNc1c2ccc(Cl)cc2nc2ccc(OC)cc12)Cc1nccn1C` [SJ000522973] yielded a TR-FRET signal of −159.9. For `COc1ccc(CN(CCCCNc2ccnc3cc(Cl)ccc23)Cc2ccccc2)cc1` [SJ000522724], the TR-FRET signal was 6.683. With `Oc1ccccc1CN1CCC(Nc2ccnc3cc(Cl)ccc23)CC1` [SJ000357529] the TR-FRET signal was 22.15. `COc1ccc2nc3cc(Cl)ccc3c(NCCCNCc3c(F)cccc3C(F)(F)F)c2c1` [SJ000520999] showed a TR-FRET signal of −116.7. In the case of `CCOC(=O)c1cnc2c(Cl)cc(Cl)cc2c1NCCN1CCOCC1` [SJ000175864], the TR-FRET signal is reported as −13.06. With `Cc1ccc(C)c(CN2CCC(Nc3ccnc4cc(Cl)ccc34)CC2)c1` [SJ000523106] the TR-FRET signal was 18.68. Molecule `Cc1ccc2ncc(S(=O)(=O)c3ccccc3)c(N3CCN(c4ccccc4F)CC3)c2c1` [SJ000315092] has a TR-FRET signal of −33.48. Work on `COc1ccc2nc3cc(Cl)ccc3c(NCCCNCC3CCCCC3)c2c1` [SJ000361090] yielded a TR-FRET signal of −411.2. `COc1ccccc1N1CCN(c2c(S(=O)(=O)c3ccc(C)cc3)cnc3ccc(Cl)cc23)CC1` [SJ000117067] showed a TR-FRET signal of −12.86. In the case of `COc1ccc2nc3cc(Cl)ccc3c(NCCCNCc3cc(OC(F)(F)F)ccc3OC)c2c1` [SJ000521001], the TR-FRET signal is reported as −231.8. For `CCCN(CCCNc1c2ccc(Cl)cc2nc2ccc(OC)cc12)Cc1ccc(OC)cc1` [SJ000520943], the TR-FRET signal was −241.4.

Same assay, conditions: single point TR-FRET screening of quinoline compounds against MAGE-A11:PCF11; 15 μM
Work on `CCOC(=O)c1cnc2c(C)cc(Cl)cc2c1NCCCN1CCOCC1` [SJ000174094] yielded a TR-FRET signal of −10.52. `FC(F)(F)c1ccc2c(NCCCNCc3csc4ccccc34)ccnc2c1` [SJ000521061] was tested, and the TR-FRET signal was 41.86. With `CCCN(CCCNc1ccnc2cc(C(F)(F)F)ccc12)Cc1nc2ccccc2s1` [SJ000520484] the TR-FRET signal was 7.404. `CCCN(CCCNc1ccnc2cc(Cl)ccc12)Cc1ccc(-c2cccc(Cl)c2)o1` [SJ000523045] showed a TR-FRET signal of 16.23. For `CCC(CC)c1ccc2c(NCCCNCc3ccco3)ccnc2c1` [SJ000311266], the TR-FRET signal was 24.56. `Fc1ccc(Cc2ccc3c(NCCCNCc4ccco4)ccnc3c2)c(Cl)c1` [SJ000311322] was tested, and the TR-FRET signal was 24.77. `CCCN(CCCNc1ccnc2cc(C(F)(F)F)ccc12)Cc1ccc(F)c(F)c1` [SJ000361272] gave a TR-FRET signal of 13.84. `CCCN(CCCNc1ccnc2cc(Cl)ccc12)Cc1c[nH]c2ccc(F)cc12` [SJ000522992] was tested, and the TR-FRET signal was 29.34. `FC(F)(F)c1cc(-c2ccc3c(NCCCNCc4ccco4)ccnc3c2)cc(C(F)(F)F)c1` [SJ000311270] was tested, and the TR-FRET signal was 59.71. `CCCN(CCCNc1c2ccc(Cl)cc2nc2ccc(OC)cc12)CC(C)C` [SJ000575150] gave a TR-FRET signal of −21.37. Work on `CCCCN(CCC)CCCNc1ccnc2cc(C(F)(F)F)ccc12` [SJ000520477] yielded a TR-FRET signal of 23.58. With `CCCN(CCCNc1ccnc2cc(Cl)ccc12)Cc1cccn1C` [SJ000523014] the TR-FRET signal was 22.71. Molecule `CCCN(CCCNc1ccnc2cc(Cl)ccc12)Cc1c(C)cc(C)cc1C` [SJ000522749] has a TR-FRET signal of 35.43. Molecule `CCCN(CCCNc1c2ccc(Cl)cc2nc2ccc(OC)cc12)Cc1cccnc1` [SJ000575152] has a TR-FRET signal of −23.4. Work on `CCCN(CCCNc1ccnc2cc(C(F)(F)F)ccc12)Cc1ccc2c(c1)OCO2` [SJ000361270] yielded a TR-FRET signal of 5.623. `CC(C)CCN(CCCNc1ccnc2cc(Cl)ccc12)Cc1ccccc1` [SJ000311183] showed a TR-FRET signal of 2.673. With `CCCN(CCCNc1ccnc2cc(C(F)(F)F)ccc12)Cc1ccoc1` [SJ000361267] the TR-FRET signal was 28.55. `Cc1ccc(CN(CCCNc2ccnc3cc(Cl)ccc23)Cc2ccccc2)o1` [SJ000312669] was tested, and the TR-FRET signal was 2.84. `COc1ccc(C(F)(F)F)cc1CN(CCCNc1ccnc2cc(Cl)ccc12)Cc1ccccc1` [SJ000520450] was tested, and the TR-FRET signal was 23.18. `COc1ccc(OC(F)(F)F)cc1CN(CCCNc1ccnc2cc(Cl)ccc12)Cc1ccccc1` [SJ000520452] showed a TR-FRET signal of 20.44. For `CCCN(CCCNc1c2ccc(Cl)cc2nc2ccc(OC)cc12)Cc1cncc(Br)c1` [SJ000522975], the TR-FRET signal was −89.08. `CCCN(CCCNc1ccnc2cc(C(F)(F)F)ccc12)Cc1ccc(OC(F)(F)F)cc1` [SJ000520474] showed a TR-FRET signal of 17.38. `CCCN(CCCNc1ccnc2cc(Cl)ccc12)Cc1ccc([N+](=O)[O-])o1` [SJ000523047] showed a TR-FRET signal of 9.575. Work on `Cn1ccnc1CN(CCCNc1ccnc2cc(Cl)ccc12)Cc1ccccc1` [SJ000520431] yielded a TR-FRET signal of 15.36. `N#Cc1ccc(Cc2ccc3c(NCCCNCc4ccco4)ccnc3c2)cc1` [SJ000311302] was tested, and the TR-FRET signal was 20.43. Molecule `CCCN(CCCNc1ccnc2cc(Cl)ccc12)CCOCc1ccccc1` [SJ000357577] has a TR-FRET signal of −13.18. With `FC(F)(F)c1ccc(-c2ccc3c(NCCCNCc4ccco4)ccnc3c2)cc1` [SJ000311278] the TR-FRET signal was 56.21. For `CCCN(CCCNc1ccnc2cc(Cl)ccc12)Cc1scnc1C` [SJ000523005], the TR-FRET signal was 11.85. `CCCN(CCCNc1ccnc2cc(Cl)ccc12)Cc1ccco1` [SJ000357458] showed a TR-FRET signal of 3.483. In the case of `CCCN(CCCNc1ccnc2cc(Cl)ccc12)Cc1cccc(C(F)(F)F)c1` [SJ000523013], the TR-FRET signal is reported as 17.48. `Clc1ccc2c(NCCCN(Cc3ccccc3)Cc3ccc(Br)s3)ccnc2c1` [SJ000357461] gave a TR-FRET signal of 27.5. Work on `Clc1ccc2c(NCCCN(CCCc3ccccc3)Cc3ccccc3)ccnc2c1` [SJ000361185] yielded a TR-FRET signal of 6.074. Work on `Clc1ccc2c(NCCCN(Cc3ccccc3)Cc3ccncc3)ccnc2c1` [SJ000312679] yielded a TR-FRET signal of −5.573. Work on `CCCN(CCCNc1c2ccc(Cl)cc2nc2ccc(OC)cc12)Cc1cccc([N+](=O)[O-])c1` [SJ000520948] yielded a TR-FRET signal of −10.74.
